Test results as given in the kinase profiling compilation of Christmann-Franck et al. (2016).

Columns and labels:
Assay in all cases: KINOMEscan competition binding
Conditions in all cases: compound 10.0 µM
BLK (human) = BLK (human) (UniProt P51451)
CAMK4 (human) = CAMK4 (human) (UniProt Q16566)
[1] = system: EGFR (human), P00533 [G719C]
ERBB2 (human) = ERBB2 (human) (UniProt P04626)
FGFR2 (human) = FGFR2 (human) (UniProt P21802)
FGR (human) = FGR (human) (UniProt P09769)
FRK (human) = FRK (human) (UniProt P42685)
GRK7 (human) = GRK7 (human) (UniProt Q8WTQ7)
ICK (human) = ICK (human) (UniProt Q9UPZ9)
ICK (human), sequence (Q9UPZ9 whole entry, looked up): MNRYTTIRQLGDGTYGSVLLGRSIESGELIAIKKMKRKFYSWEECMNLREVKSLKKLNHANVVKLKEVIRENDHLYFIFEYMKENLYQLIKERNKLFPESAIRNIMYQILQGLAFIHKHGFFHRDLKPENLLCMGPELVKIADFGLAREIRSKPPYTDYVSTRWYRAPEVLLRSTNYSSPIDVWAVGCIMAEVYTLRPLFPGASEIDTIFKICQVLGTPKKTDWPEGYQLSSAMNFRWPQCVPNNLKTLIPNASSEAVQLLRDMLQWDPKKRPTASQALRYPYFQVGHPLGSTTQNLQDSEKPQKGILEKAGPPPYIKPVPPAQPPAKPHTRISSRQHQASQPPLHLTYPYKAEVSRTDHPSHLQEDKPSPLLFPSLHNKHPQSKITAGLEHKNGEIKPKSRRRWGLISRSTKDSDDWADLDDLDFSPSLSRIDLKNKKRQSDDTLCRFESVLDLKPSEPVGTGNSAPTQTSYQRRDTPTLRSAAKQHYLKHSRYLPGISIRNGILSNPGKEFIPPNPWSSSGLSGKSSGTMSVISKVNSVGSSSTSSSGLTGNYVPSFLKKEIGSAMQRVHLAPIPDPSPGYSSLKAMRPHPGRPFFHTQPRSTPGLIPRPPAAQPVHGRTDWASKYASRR

IGF1R (human) = IGF1R (human) (UniProt P08069)
[2] = system: KIT (human), P10721 [D816H]
MAP3K2 (human) = MAP3K2 (human) (UniProt Q9Y2U5)
MAP4K4 (human) = MAP4K4 (human) (UniProt O95819)
MAPK3 (human) = MAPK3 (human) (UniProt P27361)
MAST1 (human) = MAST1 (human) (UniProt Q9Y2H9)
MERTK (human) = MERTK (human) (UniProt Q12866)
MST1R (human) = MST1R (human) (UniProt Q04912)
MUSK (human) = MUSK (human) (UniProt O15146)
MYLK (human) = MYLK (human) (UniProt Q15746)
MYLK4 (human) = MYLK4 (human) (UniProt Q86YV6)
MYO3B (human) = MYO3B (human) (UniProt Q8WXR4)
NEK2 (human) = NEK2 (human) (UniProt P51955)
PAK4 (human) = PAK4 (human) (UniProt O96013)
PI4KB (human) = PI4KB (human) (UniProt Q9UBF8)
[3] = system: PIK3CA (human), P42336 [H1047L]
PIM2 (human) = PIM2 (human) (UniProt Q9P1W9)
PTK2B (human) = PTK2B (human) (UniProt Q14289)
ROCK2 (human) = ROCK2 (human) (UniProt O75116)
RPS6KA2 KD2 (human) = RPS6KA2 KD2 (human) (UniProt Q15349)
SRMS (human) = SRMS (human) (UniProt Q9H3Y6)
STK10 (human) = STK10 (human) (UniProt O94804)
STK38 (human) = STK38 (human) (UniProt Q15208)
TAOK1 (human) = TAOK1 (human) (UniProt Q7L7X3)
TAOK1 (human), sequence (Q7L7X3 whole entry, looked up): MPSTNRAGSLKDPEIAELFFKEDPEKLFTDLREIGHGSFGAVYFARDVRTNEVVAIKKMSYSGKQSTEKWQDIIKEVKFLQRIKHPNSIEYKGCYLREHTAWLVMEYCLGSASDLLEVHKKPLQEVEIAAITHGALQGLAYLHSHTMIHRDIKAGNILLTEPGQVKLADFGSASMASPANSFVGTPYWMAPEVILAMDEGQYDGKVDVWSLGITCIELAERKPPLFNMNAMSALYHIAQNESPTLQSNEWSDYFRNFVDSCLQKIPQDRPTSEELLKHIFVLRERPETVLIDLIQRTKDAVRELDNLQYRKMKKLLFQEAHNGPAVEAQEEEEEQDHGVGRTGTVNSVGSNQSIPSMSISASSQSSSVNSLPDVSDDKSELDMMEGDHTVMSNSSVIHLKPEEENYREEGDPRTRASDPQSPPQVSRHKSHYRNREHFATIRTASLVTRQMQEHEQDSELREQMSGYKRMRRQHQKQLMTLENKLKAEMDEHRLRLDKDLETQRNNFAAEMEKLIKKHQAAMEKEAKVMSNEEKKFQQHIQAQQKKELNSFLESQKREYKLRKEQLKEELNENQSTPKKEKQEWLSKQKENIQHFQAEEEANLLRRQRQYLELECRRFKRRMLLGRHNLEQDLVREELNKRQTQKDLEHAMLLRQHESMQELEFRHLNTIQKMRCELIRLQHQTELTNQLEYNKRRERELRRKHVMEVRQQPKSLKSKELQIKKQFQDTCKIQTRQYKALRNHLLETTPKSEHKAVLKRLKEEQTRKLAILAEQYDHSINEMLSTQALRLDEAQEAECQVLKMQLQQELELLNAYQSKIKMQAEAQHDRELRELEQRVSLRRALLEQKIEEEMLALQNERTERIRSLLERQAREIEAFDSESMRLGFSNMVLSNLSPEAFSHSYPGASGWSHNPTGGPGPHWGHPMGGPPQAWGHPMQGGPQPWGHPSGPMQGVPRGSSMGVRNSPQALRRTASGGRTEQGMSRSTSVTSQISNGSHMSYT

TAOK2 (human) = TAOK2 (human) (UniProt Q9UL54)
TGFBR1 (human) = TGFBR1 (human) (UniProt P36897)
TGFBR2 (human) = TGFBR2 (human) (UniProt P37173)
TRPM6 (human) = TRPM6 (human) (UniProt Q9BX84)
TRPM6 (human), sequence (Q9BX84 whole entry, looked up): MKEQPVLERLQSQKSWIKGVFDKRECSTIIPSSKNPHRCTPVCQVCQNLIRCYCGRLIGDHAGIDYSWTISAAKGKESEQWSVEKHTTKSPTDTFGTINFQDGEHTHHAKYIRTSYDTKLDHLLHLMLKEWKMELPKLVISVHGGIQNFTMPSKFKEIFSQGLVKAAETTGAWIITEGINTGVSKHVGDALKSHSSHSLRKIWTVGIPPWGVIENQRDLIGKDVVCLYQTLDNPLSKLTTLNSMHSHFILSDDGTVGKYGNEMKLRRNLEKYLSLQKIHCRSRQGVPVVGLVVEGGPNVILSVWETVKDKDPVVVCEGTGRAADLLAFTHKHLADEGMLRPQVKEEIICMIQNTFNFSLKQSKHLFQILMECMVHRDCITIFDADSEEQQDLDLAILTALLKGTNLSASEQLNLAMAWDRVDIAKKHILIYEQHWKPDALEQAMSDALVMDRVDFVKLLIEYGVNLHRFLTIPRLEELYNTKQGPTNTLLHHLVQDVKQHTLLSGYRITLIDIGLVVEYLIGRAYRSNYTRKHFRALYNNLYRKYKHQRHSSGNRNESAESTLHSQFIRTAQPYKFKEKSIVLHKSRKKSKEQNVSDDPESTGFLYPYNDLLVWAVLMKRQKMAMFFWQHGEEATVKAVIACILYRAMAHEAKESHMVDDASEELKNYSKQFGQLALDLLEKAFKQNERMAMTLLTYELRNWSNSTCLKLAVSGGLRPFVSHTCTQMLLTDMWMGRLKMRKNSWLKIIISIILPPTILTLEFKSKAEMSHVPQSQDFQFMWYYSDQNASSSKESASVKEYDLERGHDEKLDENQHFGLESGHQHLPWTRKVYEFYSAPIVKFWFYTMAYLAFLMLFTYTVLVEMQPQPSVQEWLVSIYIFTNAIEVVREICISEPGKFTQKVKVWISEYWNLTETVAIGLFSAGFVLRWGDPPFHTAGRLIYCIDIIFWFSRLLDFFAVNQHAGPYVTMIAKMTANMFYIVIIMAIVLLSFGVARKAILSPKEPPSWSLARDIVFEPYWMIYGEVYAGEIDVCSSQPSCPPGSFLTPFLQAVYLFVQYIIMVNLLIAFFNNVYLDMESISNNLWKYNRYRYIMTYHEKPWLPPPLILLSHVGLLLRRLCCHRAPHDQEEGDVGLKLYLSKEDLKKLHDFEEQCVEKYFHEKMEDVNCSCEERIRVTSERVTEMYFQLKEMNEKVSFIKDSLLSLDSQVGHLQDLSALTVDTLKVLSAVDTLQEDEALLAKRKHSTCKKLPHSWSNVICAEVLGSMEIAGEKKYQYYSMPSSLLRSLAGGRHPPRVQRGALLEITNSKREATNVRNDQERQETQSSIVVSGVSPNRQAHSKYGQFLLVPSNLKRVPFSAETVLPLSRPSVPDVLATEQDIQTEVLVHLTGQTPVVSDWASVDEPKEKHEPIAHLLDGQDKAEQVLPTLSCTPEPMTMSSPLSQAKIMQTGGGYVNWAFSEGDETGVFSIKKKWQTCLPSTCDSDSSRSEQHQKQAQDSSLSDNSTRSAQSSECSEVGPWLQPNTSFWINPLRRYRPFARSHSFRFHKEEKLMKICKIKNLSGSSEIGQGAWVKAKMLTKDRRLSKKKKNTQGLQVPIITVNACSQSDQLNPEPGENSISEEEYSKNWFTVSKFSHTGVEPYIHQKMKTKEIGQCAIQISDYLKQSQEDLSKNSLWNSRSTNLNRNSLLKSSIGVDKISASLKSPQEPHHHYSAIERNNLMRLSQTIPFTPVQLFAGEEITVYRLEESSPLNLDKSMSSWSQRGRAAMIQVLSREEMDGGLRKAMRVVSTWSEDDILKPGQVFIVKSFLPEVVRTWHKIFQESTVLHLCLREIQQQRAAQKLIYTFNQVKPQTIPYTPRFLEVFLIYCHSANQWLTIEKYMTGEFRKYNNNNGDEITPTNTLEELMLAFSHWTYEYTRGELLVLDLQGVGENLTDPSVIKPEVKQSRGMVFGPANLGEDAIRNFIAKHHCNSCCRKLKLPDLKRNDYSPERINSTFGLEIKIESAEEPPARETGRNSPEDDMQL

TXK (human) = TXK (human) (UniProt P42681)
TYRO3 (human) = TYRO3 (human) (UniProt Q06418)
ULK1 (human) = ULK1 (human) (UniProt O75385)

ERBB2 (human), sequence (P04626 whole entry, looked up): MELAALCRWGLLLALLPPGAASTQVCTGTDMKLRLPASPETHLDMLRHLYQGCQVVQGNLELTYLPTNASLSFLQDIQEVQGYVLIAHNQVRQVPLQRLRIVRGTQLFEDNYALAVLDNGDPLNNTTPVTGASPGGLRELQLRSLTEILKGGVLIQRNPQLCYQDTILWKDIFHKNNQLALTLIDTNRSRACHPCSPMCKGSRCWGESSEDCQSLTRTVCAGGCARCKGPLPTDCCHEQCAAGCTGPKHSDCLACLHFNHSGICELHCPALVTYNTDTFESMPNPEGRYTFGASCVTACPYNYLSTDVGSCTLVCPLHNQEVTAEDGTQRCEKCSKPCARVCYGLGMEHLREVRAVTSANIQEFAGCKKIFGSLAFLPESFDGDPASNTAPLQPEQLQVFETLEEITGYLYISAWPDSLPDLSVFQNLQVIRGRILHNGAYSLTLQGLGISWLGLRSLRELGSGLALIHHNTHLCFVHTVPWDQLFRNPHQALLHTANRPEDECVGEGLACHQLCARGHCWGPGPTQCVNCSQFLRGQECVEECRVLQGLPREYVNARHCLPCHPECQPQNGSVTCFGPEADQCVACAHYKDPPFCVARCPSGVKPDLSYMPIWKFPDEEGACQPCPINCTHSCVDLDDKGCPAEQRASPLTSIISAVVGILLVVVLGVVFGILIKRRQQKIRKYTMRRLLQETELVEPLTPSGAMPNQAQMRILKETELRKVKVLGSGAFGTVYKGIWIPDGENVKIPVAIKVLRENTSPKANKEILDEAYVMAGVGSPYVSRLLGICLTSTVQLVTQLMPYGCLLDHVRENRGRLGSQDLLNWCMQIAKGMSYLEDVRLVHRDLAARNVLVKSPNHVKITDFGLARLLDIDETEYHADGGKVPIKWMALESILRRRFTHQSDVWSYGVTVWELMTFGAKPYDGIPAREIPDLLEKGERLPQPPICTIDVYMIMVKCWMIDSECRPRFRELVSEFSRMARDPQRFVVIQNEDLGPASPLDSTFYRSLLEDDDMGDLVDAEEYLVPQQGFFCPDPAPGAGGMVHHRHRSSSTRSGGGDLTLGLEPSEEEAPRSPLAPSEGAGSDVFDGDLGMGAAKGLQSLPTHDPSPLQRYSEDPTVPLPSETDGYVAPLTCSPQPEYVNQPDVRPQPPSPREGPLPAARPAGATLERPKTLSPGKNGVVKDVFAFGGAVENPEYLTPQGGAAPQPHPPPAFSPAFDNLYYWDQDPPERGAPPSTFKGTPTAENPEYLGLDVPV

`CCCS(=O)(=O)Nc1ccc(F)c(C(=O)c2c[nH]c3ncc(Cl)cc23)c1F` gave a kinase still bound, per cent of control (BLK (human)) of 1.7%, a kinase still bound, per cent of control (CAMK4 (human)) of 100% and a kinase still bound, per cent of control [1] of 50%. It also gave a kinase still bound, per cent of control (ERBB2 (human)) of 78%, a kinase still bound, per cent of control (FGFR2 (human)) of 59% and a kinase still bound, per cent of control (FGR (human)) of 8.4%. The kinase still bound, per cent of control (FRK (human)) was 19%, the kinase still bound, per cent of control (GRK7 (human)) was 76% and the kinase still bound, per cent of control (ICK (human)) was 63%. The kinase still bound, per cent of control (IGF1R (human)) was 91%, the kinase still bound, per cent of control [2] was 93% and the kinase still bound, per cent of control (MAP3K2 (human)) was 62%. For the same molecule, the kinase still bound, per cent of control (MAP4K4 (human)) was 64%, the kinase still bound, per cent of control (MAPK3 (human)) was 100% and the kinase still bound, per cent of control (MAST1 (human)) was 100%. The kinase still bound, per cent of control (MERTK (human)) was 94%, the kinase still bound, per cent of control (MST1R (human)) was 100% and the kinase still bound, per cent of control (MUSK (human)) was 71%. For the same molecule, the kinase still bound, per cent of control (MYLK (human)) was 79%, the kinase still bound, per cent of control (MYLK4 (human)) was 15% and the kinase still bound, per cent of control (MYO3B (human)) was 47%. For the same molecule, the kinase still bound, per cent of control (NEK2 (human)) was 49%, the kinase still bound, per cent of control (PAK4 (human)) was 57% and the kinase still bound, per cent of control (PI4KB (human)) was 25%. For the same molecule, the kinase still bound, per cent of control [3] was 100%, the kinase still bound, per cent of control (PIM2 (human)) was 80% and the kinase still bound, per cent of control (PTK2B (human)) was 83%. For the same molecule, the kinase still bound, per cent of control (ROCK2 (human)) was 81%, the kinase still bound, per cent of control (RPS6KA2 KD2 (human)) was 94% and the kinase still bound, per cent of control (SRMS (human)) was 0.05%. For the same molecule, the kinase still bound, per cent of control (STK10 (human)) was 68%, the kinase still bound, per cent of control (STK38 (human)) was 78% and the kinase still bound, per cent of control (TAOK1 (human)) was 52%. The kinase still bound, per cent of control (TAOK2 (human)) was 43%, the kinase still bound, per cent of control (TGFBR1 (human)) was 60% and the kinase still bound, per cent of control (TGFBR2 (human)) was 6.6%. It also gave a kinase still bound, per cent of control (TRPM6 (human)) of 99%, a kinase still bound, per cent of control (TXK (human)) of 69% and a kinase still bound, per cent of control (TYRO3 (human)) of 100%. It also gave a kinase still bound, per cent of control (ULK1 (human)) of 44%.
Molecule `CNC(=O)Nc1ccc(-c2nc(N3CC4CCC(C3)O4)c3cnn(C4CCC5(CC4)OCCO5)c3n2)cc1` has a kinase still bound, per cent of control (BLK (human)) of 96%, a kinase still bound, per cent of control (CAMK4 (human)) of 100% and a kinase still bound, per cent of control [1] of 80%. The kinase still bound, per cent of control (ERBB2 (human)) was 88%, the kinase still bound, per cent of control (FGFR2 (human)) was 92% and the kinase still bound, per cent of control (FGR (human)) was 100%. It also gave a kinase still bound, per cent of control (FRK (human)) of 68%, a kinase still bound, per cent of control (GRK7 (human)) of 91% and a kinase still bound, per cent of control (ICK (human)) of 87%. For the same molecule, the kinase still bound, per cent of control (IGF1R (human)) was 93%, the kinase still bound, per cent of control [2] was 86% and the kinase still bound, per cent of control (MAP3K2 (human)) was 95%. The kinase still bound, per cent of control (MAP4K4 (human)) was 85%, the kinase still bound, per cent of control (MAPK3 (human)) was 97% and the kinase still bound, per cent of control (MAST1 (human)) was 95%. It also gave a kinase still bound, per cent of control (MERTK (human)) of 87%, a kinase still bound, per cent of control (MST1R (human)) of 100% and a kinase still bound, per cent of control (MUSK (human)) of 92%. It also gave a kinase still bound, per cent of control (MYLK (human)) of 100%, a kinase still bound, per cent of control (MYLK4 (human)) of 100% and a kinase still bound, per cent of control (MYO3B (human)) of 91%. It also gave a kinase still bound, per cent of control (NEK2 (human)) of 72%, a kinase still bound, per cent of control (PAK4 (human)) of 100% and a kinase still bound, per cent of control (PI4KB (human)) of 100%. The kinase still bound, per cent of control [3] was 15%, the kinase still bound, per cent of control (PIM2 (human)) was 74% and the kinase still bound, per cent of control (PTK2B (human)) was 100%. It also gave a kinase still bound, per cent of control (ROCK2 (human)) of 100%, a kinase still bound, per cent of control (RPS6KA2 KD2 (human)) of 93% and a kinase still bound, per cent of control (SRMS (human)) of 97%. The kinase still bound, per cent of control (STK10 (human)) was 99%, the kinase still bound, per cent of control (STK38 (human)) was 100% and the kinase still bound, per cent of control (TAOK1 (human)) was 100%. The kinase still bound, per cent of control (TAOK2 (human)) was 100%, the kinase still bound, per cent of control (TGFBR1 (human)) was 100% and the kinase still bound, per cent of control (TGFBR2 (human)) was 100%. It also gave a kinase still bound, per cent of control (TRPM6 (human)) of 100%, a kinase still bound, per cent of control (TXK (human)) of 94% and a kinase still bound, per cent of control (TYRO3 (human)) of 100%. For the same molecule, the kinase still bound, per cent of control (ULK1 (human)) was 100%.
